Assay results published in paper PMC9232112 (Science Advances, 2022).

Experiments:
measles virus polymerase = settings: equivalent measles virus RdRP assay; cited from earlier work
recRSV-mKate = experiment: microbe, parasite or virus in culture; format: cell-based; settings: human respiratory syncytial virus, read-out: EC50, apical RSV shedding

Structure (SMILES) | phosphodiester bond formation (measles virus polymerase) | EC50 (recRSV-mKate)
Cn1nc(C(F)(F)F)cc1C(=O)Nc1ccc(S(=O)(=O)N2CCCC[C@H]2CCN2CCOCC2)cc1 [ERDRP-0519] | completely blocks all phosphodiesterbond formation | –
O=c1nc(NO)ccn1[C@@H]1O[C@H](CO)[C@@H](O)[C@H]1O [NHC, N^4-hydroxycytidine] | – | 50 nM
